Measurements as given in patent publication US5643917A, “4-aminomethyl-1-azaadamantane derived benzamides” (priority 1995, dated 1997).
Structures can show the parent of a compound that is named as a salt.

Columns and labels:
[1] = system: guinea pig stomach muscle strip; settings: cited from earlier work
[2] = system: gastric emptying; settings: cited from earlier work
[3] = molecular target: T1, 5-HT3 receptors (Mus musculus, UniProt P23979); assay: Serotonin 5-HT3 receptor binding assay, [3H]GR65630, NG108-15 membranes; settings: for Ki: Ki (5-HT3 receptors), [3H]GR65630 1 nM, apparent Ki calculated from IC50
T1 construct: endogenous in cells; host or cells: NG108-15 neuroblastoma cells (membranes)
T1 sequence (P23979 24-489): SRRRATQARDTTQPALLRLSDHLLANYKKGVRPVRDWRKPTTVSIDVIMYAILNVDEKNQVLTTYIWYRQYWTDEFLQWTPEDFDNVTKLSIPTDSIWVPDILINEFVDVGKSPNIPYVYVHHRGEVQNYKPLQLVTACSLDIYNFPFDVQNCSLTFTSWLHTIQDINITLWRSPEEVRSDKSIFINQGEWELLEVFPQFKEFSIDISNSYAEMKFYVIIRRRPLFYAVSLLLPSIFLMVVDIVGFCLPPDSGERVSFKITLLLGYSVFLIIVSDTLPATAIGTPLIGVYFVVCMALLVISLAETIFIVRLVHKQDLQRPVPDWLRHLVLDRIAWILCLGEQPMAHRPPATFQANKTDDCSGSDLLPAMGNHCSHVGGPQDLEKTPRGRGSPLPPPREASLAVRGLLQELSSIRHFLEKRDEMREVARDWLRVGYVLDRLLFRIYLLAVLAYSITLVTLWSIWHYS
Procedure: Preparation of Membrane Suspensions
NG108-15 neuroblastoma cells were cultured at 37° C. in closed culture flasks for 3-4 days or to confluence (6-16×10^6 cells/flask). […] The cells were centrifuged at 900×g for five minutes at 4° C. At this point the cells could be frozen. The (frozen or freshly prepared) pellets from each flask were suspended in 4 ml buffer and homogenized a second time as above. The resulting supernatant was used for radioligand binding studies.
To each well of a microtiter plate were added 100 μl tissue, 50 μl [^3 H]GR65630 (4 nM stock, SA=64 Ci/mmol from Dupont/NEN) and 50 μl drugs. Nonspecific binding was measured in the presence of 10 μM zacopride. Reactions were incubated for 45-60 minutes at 25° C. followed by filtration under reduced pressure through GF/B-type filters with the aid of either a Brandel or Skatron macro harvester. The filters were washed with ice-cold buffer (a 6 sec wash time on the Skatron harvester, using filters presoaked with polyethylenimine) and specific binding was measured by either a Packard CA 1900 or an LKB Betaplate counter. […] IC50 values were determined for test drugs, and Ki values calculated from the equation: […]

[4] = system: peristalsis in the GI tract; settings: various animal models; cited from earlier work
[5] = system: 5-HT4 receptors; settings: cited from earlier work
[6] = system: guinea pig stomach strips; settings: cited from earlier work
[7] = system: 5-HT3-mediated Bezold Jarisch reflex; settings: in vivo; cited from earlier work
[8] = system: antroduodenal motility; settings: coadministered with cisapride; dogs; cited from earlier work
[9] = system: gastric emptying; settings: in vivo; cited from earlier work
[10] = system: transit of a charcoal meal; settings: mouse, in vivo; cited from earlier work
[11] = system: gastric emptying of solid meals; assay: Canine gastric emptying in vivo model, alpha-2 adrenergic model of gastroparesis, solid meal; set-up: species or system dog; settings: % emptied, treated, emptying delayed by alpha-2 adrenergic agonist
[12] = system: 5-HT4 receptor subtype; settings: mouse embryonic colliculi neurons; cited from earlier work
[13] = system: GI transit; settings: man; cited from earlier work
[14] = system: GI transit; settings: man; cited from earlier work; remark: listed apart in the source

CN1[C@@H]2CC[C@H]1C[C@@H](OC(=O)c1cc(Cl)cc(Cl)c1)C2 [MDL 72222]
guinea pig stomach muscle strip contraction in vitro [1]: enhanced guinea pig stomach muscle strip contraction in vitro | gastric emptying rates in vivo [2]: increases in gastric emptying rates in vivo

Cc1nc[nH]c1CCC(=O)c1cn(C)c2ccccc12 [[^3 H]GR65630]
Kd [3]: 1.5 nM | Bmax ([3]; radioligand, NG108-15 membranes, 25° C.): 195 fmole/mg protein

NCCc1c[nH]c2ccc(O)cc12 [Serotonin, 5-hydroxytryptamine]
peristalsis in the GI tract [4]: promote peristalsis in the GI tract | receptor mediating the peristaltic reflex [5]: mediated through agonism at 5-HT4 receptors

COc1cc(N)c(Cl)cc1C(=O)NCC1C2CC3CC1CN(C3)C2 (stereo not drawn) [Example 2, Endo-4-amino-N-(1-azacyclo[3.3.1.1^3,7]decan-4-ylmethyl)-5-chloro-2-methoxybenzamide hydrochloride]
Ki ([3]; NG108-15 membranes, 25° C.): 144 nM

CCN(CC)CCNC(=O)c1cc(Cl)c(N)cc1OC [metoclopramide]
electrical-field stimulated contractions in guinea pig stomach strips [6]: enhanced electrical-field stimulated contractions | 5-HT3-mediated Bezold Jarisch reflex [7]: blocks the 5-HT3 -mediated Bezold Jarisch reflex | guinea pig stomach muscle strip contraction in vitro [1]: enhanced guinea pig stomach muscle strip contraction in vitro | gastric emptying rates in vivo [2]: increases in gastric emptying rates in vivo

CN1[C@@H]2CC[C@H]1C[C@@H](OC(=O)c1c[nH]c3ccccc13)C2 [ICS-205930]
effect on the responses to cisapride [8]: did not affect the responses to cisapride | gastric emptying [9]: enhanced gastric emptying | guinea pig stomach muscle strip contraction in vitro [1]: enhanced guinea pig stomach muscle strip contraction in vitro | gastric emptying rates in vivo [2]: increases in gastric emptying rates in vivo

Cc1nccn1CC1CCc2c(c3ccccc3n2C)C1=O.Cl.O.O (stereo not shown) [SN-307]
transit of a charcoal meal in mice [10]: enhanced transit of a charcoal meal in mice

COc1cc(N)c(Cl)cc1C(=O)NCC1C2CC3CC1CN(C3)C2 (stereo not drawn) [Example 4, Exo-4-amino-N-(1-azacyclo[3.3.1.1^3,7]decan-4-ylmethyl)-5-chloro-2-methoxybenzamide, hydrochloride]
Canine Solid Gastric Emptying (% Control to Treat) ([11]; control 20.2%, at 0.3 mg/kg IV): 35.1% | Ki ([3]; NG108-15 membranes, 25° C.): 25.7 nM

COc1cc(N)c(Cl)cc1C(=O)NC1CCN(CCCOc2ccc(F)cc2)CC1OC (stereo not shown) [Cisapride]
Canine Solid Gastric Emptying (% Control to Treat) ([11]; control 23.2%, at 0.3 mg/kg IG): 36.6% | correlation of prokinetic activity with 5-HT4 agonist activity [12]: correlate with agonist activity at a novel 5-HT4 receptor subtype

Cc1nccn1CC1CCc2c(c3ccccc3n2C)C1=O (stereo not shown) [GR38032]
GI transit [13]: failed to accelerate GI transit | colonic transit [13]: slowed colonic transit in man | small intestinal transit times or mouth-to-cecum transit times [14]: did not alter small intestinal transit times or mouth-to-cecumtransit times

COc1cc(N)c(Cl)cc1C(=O)NC1CCN2CCCC1C2 (stereo not shown) [BRL-24924]
correlation of prokinetic activity with 5-HT4 agonist activity [12]: correlate with agonist activity at a novel 5-HT4 receptor subtype | receptor mediating the peristaltic reflex [5]: mediated through agonism at 5-HT4 receptors
